# Tested on: inflammation induced by the implant
# Assay: Expression of inflammation-related genes in sciatic nerve and surrounding muscle tissue after implant
# Type: in vivo, rodent
# Settings: release of bupivacaine from the implant
# Source text: FIG. 13A, FIG. 13B, FIG. 13C, FIG. 13D, and FIG. 13E show the expression of genes related to inflammation in sciatic nerve tissue: TNF-α (FIG. 13A); IL-1β (FIG. 13B); IL-6 (FIG. 13C); PTGS2 (COX-2) (FIG. 13D); and NOS2 (FIG. 13E); respectively; FIG. 14A, FIG. 14B, FIG. 14C, FIG. 14D, and FIG. 14E show the expression of genes related to inflammation in surrounding muscle tissue: COX-2 expression (FIG. 14A); IL-6 expression (FIG. 14B); TNF-α expression (FIG. 14C); IL-1β expression (FIG. 14D); and iNOS expression (FIG. 14E);
smiles,measurement,value
CCCCN1CCCCC1C(=O)Nc1c(C)cccc1C (stereo not shown) [bupivacaine],inflammation induced by the implant,decreased the inflammation induced by the implant

# — patent publication US20180361032A1, “IMPLANTABLE ELECTROSPUN PATCHES FOR SITE-DIRECTED DRUG DELIVERY” (The Methodist Hospital, priority 2016, published 2018)
